According to ChEMBL document CHEMBL3627608, “Crystal structures of human RIP2 kinase catalytic domain complexed with ATP-competitive inhibitors: Foundations for understanding inhibitor selectivity” (Bioorg Med Chem, 2015):

Tests used:
[1] = biological target: T1, Serine/threonine-protein kinase TAO2 (Homo sapiens) (UniProt Q9UL54); test: Inhibition of TAOK2 (unknown origin) at 10 uM after 120 mins P33 radiolabeled kinase activity assay
T1 sequence (whole entry): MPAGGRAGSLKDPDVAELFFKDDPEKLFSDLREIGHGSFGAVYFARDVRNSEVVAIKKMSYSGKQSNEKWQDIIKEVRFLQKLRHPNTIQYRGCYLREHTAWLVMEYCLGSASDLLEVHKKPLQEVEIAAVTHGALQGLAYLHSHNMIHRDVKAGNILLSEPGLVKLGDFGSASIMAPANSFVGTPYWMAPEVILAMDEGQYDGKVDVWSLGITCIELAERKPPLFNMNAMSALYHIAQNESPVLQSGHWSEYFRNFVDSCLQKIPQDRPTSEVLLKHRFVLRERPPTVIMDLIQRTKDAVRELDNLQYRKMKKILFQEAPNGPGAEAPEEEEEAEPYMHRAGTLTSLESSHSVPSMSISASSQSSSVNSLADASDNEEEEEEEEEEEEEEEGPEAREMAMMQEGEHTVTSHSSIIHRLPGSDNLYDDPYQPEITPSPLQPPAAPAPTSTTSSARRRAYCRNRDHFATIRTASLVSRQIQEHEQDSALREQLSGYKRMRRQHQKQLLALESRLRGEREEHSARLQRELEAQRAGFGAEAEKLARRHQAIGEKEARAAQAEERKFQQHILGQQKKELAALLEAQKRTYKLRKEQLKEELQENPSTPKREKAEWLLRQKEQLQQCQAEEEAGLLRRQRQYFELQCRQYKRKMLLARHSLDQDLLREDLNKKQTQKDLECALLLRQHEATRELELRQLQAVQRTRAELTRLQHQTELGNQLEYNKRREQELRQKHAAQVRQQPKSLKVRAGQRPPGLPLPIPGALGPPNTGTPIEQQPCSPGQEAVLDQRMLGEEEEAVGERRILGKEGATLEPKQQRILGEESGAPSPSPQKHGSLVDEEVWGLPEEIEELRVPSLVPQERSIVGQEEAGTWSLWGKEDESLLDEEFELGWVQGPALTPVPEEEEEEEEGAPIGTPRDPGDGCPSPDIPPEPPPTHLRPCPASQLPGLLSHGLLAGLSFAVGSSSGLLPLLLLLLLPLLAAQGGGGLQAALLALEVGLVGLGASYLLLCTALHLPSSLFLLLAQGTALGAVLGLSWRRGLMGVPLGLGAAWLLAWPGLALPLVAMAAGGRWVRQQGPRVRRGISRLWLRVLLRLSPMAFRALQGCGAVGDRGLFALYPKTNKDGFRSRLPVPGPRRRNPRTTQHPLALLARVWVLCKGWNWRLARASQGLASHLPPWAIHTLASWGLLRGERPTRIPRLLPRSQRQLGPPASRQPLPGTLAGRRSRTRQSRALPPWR

[2] = biological target: Tyrosine-protein kinase SYK (Homo sapiens) (UniProt P43405); test: Inhibition of SYK (unknown origin) at 10 uM after 120 mins P33 radiolabeled kinase activity assay
[3] = biological target: T2, Protein kinase C epsilon type (Homo sapiens) (UniProt Q02156); test: Inhibition of PKCepsilon (unknown origin) at 10 uM after 120 mins P33 radiolabeled kinase activity assay
T2 sequence (whole entry): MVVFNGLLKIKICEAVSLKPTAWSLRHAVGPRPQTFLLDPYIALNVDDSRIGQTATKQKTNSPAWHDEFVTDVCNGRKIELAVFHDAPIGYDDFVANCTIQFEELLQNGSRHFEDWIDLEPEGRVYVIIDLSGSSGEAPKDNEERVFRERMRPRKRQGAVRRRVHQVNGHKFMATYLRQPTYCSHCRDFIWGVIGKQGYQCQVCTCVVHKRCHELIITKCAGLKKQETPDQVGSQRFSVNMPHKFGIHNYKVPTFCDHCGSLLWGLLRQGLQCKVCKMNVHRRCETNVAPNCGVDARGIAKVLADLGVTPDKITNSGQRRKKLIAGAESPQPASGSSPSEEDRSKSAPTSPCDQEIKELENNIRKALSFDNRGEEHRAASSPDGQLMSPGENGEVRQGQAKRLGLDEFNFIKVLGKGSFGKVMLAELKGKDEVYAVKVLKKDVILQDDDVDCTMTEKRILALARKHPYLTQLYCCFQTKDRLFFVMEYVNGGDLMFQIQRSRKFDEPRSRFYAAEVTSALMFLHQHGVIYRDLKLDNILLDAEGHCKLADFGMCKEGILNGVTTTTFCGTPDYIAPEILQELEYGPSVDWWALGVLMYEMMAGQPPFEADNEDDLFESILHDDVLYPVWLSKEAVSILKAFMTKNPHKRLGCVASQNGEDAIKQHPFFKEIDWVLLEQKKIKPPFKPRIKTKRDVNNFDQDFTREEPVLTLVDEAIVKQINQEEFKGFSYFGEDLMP

[4] = biological target: Serine/threonine-protein kinase MRCK gamma (Homo sapiens) (UniProt Q6DT37); test: Inhibition of DMPK2 (unknown origin) at 10 uM after 120 mins P33 radiolabeled kinase activity assay
Serine/threonine-protein kinase MRCK gamma (Homo sapiens), sequence (Q6DT37 whole entry): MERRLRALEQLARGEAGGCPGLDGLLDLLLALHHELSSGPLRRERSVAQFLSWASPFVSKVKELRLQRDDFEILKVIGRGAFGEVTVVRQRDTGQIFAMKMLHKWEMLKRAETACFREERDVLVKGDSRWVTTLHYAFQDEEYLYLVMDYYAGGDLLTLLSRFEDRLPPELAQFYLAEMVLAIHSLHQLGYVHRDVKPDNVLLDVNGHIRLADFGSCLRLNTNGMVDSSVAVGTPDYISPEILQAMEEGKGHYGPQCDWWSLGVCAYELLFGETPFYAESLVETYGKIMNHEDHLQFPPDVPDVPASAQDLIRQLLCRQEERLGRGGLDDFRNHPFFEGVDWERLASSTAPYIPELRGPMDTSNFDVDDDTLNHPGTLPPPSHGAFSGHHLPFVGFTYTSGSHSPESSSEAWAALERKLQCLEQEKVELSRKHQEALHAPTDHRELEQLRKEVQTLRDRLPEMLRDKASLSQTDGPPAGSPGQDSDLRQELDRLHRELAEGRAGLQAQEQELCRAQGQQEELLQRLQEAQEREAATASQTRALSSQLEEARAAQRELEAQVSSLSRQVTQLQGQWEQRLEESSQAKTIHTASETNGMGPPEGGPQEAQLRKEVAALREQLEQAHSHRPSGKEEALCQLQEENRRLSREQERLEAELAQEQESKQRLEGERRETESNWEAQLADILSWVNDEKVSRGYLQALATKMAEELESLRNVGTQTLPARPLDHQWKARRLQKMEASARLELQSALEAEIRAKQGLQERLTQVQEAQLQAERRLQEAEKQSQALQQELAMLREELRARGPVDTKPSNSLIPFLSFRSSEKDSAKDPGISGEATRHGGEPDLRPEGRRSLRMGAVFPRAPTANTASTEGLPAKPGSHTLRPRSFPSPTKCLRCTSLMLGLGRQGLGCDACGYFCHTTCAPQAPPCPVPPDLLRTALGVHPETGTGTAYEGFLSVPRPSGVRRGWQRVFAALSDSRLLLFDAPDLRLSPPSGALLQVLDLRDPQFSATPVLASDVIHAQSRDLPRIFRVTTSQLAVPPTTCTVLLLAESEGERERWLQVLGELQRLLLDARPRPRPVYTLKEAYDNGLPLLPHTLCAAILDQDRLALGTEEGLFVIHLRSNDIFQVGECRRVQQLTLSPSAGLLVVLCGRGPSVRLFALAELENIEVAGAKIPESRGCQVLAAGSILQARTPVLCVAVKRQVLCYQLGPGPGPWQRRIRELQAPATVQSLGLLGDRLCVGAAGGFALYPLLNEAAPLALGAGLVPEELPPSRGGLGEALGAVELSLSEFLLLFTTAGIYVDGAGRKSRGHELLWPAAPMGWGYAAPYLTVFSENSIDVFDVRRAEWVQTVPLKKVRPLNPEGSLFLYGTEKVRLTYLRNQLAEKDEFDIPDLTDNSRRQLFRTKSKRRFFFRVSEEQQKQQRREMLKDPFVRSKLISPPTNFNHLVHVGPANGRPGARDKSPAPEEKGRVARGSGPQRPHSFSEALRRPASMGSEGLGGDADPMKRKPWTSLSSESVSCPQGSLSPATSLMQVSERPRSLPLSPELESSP

[5] = biological target: Tyrosine-protein kinase Lck (Homo sapiens) (UniProt P06239); test: Inhibition of LCK (unknown origin) at 10 uM after 120 mins P33 radiolabeled kinase activity assay
Tyrosine-protein kinase Lck (Homo sapiens), sequence (P06239 2-509 limits assumed): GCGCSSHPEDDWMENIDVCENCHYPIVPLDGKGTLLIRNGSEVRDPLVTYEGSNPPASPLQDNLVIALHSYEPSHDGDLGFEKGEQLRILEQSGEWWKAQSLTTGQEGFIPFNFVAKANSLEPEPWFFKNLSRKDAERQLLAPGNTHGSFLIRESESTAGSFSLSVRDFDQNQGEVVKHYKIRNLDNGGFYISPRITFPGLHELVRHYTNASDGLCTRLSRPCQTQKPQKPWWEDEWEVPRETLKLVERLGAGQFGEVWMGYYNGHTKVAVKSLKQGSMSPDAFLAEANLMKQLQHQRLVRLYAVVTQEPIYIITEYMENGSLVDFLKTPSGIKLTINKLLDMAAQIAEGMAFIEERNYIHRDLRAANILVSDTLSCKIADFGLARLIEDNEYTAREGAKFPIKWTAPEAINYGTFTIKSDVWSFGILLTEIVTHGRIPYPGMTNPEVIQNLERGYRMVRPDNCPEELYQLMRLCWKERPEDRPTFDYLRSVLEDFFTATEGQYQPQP

[6] = biological target: High affinity nerve growth factor receptor (Homo sapiens) (UniProt P04629); test: Inhibition of TRKA (unknown origin) at 10 uM after 120 mins P33 radiolabeled kinase activity assay
High affinity nerve growth factor receptor (Homo sapiens), sequence (P04629 33-796 limits assumed): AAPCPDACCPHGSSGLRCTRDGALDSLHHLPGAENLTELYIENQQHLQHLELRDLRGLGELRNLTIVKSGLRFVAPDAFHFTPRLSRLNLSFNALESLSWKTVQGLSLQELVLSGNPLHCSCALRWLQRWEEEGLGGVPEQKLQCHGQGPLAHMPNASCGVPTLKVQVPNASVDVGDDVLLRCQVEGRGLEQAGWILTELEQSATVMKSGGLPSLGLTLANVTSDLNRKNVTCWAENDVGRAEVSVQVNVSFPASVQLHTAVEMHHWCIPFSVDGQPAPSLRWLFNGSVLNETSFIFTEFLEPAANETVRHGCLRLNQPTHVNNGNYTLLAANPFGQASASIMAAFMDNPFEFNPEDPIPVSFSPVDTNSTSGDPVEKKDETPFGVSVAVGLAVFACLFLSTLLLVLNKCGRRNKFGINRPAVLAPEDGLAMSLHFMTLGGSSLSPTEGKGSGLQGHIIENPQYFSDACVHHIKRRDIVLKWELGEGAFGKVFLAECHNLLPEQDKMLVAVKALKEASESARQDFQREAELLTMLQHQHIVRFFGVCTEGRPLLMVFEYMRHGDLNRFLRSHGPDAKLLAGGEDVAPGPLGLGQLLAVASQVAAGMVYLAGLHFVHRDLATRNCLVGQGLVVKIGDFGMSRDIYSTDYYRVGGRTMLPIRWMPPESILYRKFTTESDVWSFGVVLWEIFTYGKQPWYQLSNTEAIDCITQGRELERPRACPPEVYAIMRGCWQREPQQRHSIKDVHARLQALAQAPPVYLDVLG

[7] = biological target: T3, Serine/threonine-protein kinase TBK1 (Homo sapiens) (UniProt Q9UHD2); test: Inhibition of TBK1 (unknown origin) at 10 uM after 120 mins P33 radiolabeled kinase activity assay
T3 sequence (whole entry): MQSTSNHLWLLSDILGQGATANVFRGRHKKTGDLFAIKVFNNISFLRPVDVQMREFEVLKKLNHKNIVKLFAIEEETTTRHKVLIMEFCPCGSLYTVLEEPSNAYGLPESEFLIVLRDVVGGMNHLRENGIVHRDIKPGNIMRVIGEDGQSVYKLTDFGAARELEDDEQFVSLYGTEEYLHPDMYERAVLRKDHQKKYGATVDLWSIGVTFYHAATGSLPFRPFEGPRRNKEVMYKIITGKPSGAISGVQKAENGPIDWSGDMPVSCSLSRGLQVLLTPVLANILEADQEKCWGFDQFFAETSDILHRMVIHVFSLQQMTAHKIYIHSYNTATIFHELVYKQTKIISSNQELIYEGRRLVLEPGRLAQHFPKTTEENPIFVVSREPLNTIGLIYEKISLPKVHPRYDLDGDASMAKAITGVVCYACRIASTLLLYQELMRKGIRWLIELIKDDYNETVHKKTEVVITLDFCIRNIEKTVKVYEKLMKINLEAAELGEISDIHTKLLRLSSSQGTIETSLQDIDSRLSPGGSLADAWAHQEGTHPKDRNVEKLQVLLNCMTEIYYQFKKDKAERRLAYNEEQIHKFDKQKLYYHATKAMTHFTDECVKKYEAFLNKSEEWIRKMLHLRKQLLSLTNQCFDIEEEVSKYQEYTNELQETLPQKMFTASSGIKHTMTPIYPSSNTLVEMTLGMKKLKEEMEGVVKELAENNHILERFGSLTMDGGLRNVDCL

inhibition [1] [%] | inhibition [2] [%] | inhibition [3] [%] | inhibition [4] [%] | inhibition [5] [%] | inhibition [6] [%] | inhibition [7] [%] | SMILES
77.8 | 21.4 | -0.59 | -3.32 | 99.9 | 39.8 | 55.4 | CS(=O)(=O)c1cccc(Nc2nccc(-c3sc(N4CCOCC4)nc3-c3cccc(NS(=O)(=O)c4c(F)cccc4F)c3)n2)c1
1.71 | 5.53 | 1.13 | -3.48 | 52.8 | 5.11 | 5.84 | COCCNC(=O)c1ccc2c(c1)nc(-c1cnc(-c3ccc(Cl)cc3)[nH]1)n2CCOC
96.7 | 6.66 | 0.69 | -1.44 | 95.3 | 97.2 | 4.25 | CC(C)(C)c1cc(NC(=O)Nc2ccc(Oc3ccncc3)cc2)no1
